ChEMBL document CHEMBL1131171, “Three-dimensional quantitative structure-activity relationship study of the cannabimimetic (aminoalkyl)indoles using comparative molecular field analysis” (J Med Chem, 1998)

Target: Cannabinoid receptor 1 (Rattus norvegicus, UniProt P20272)
Assay: Cannabinoid receptor 1 binding affinity by measuring its ability to displace [3H]WIN-55212-2 in rat forebrain membranes
Type: cell membranes, Membrane

Sequence of Cannabinoid receptor 1 (P20272 whole entry): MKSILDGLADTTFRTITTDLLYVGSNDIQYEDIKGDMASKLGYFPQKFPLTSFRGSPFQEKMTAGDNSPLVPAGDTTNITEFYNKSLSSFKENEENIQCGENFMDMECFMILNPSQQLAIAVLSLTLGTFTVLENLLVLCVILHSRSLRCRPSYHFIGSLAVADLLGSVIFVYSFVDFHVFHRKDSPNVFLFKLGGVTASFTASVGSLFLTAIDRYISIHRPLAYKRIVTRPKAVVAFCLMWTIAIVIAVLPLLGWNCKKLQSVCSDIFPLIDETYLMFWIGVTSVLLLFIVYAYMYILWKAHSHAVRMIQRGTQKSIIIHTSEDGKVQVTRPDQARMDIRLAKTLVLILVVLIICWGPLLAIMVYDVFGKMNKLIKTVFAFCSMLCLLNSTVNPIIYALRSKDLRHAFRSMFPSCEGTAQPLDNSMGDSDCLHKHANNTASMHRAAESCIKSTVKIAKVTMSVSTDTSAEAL

Structure (SMILES): Cc1c(C(=O)c2cccc(Cl)c2)c2ccccc2n1CCN1CCOCC1
- Ki: 955 µM

Structure (SMILES): Cc1ccc(C(=O)c2c(C)n(CCN3CCOCC3)c3ccccc23)cc1
- Ki: 708 µM

Structure (SMILES): COc1ccc(C(=O)c2c(C)n(CCN3CCOCC3)c3c(C)cccc23)cc1
- Ki: 832 µM

Structure (SMILES): COc1ccc(C(=O)c2c(C)n(CCN3CCOCC3)c3cc(C)ccc23)cc1
- Ki: 676 µM

Structure (SMILES): COc1ccc(C(=O)c2c(C)n(CCN3CCOCC3)c3cc(OC)ccc23)cc1
- Ki: 871 µM

Structure (SMILES): O=C(c1c2ccccc2cc2ccccc12)c1cn(CCN2CCOCC2)c2ccccc12
- Ki: 427 µM
